Data taken from ChEMBL document CHEMBL1667860, “Acridone alkaloids as potent inhibitors of cathepsin V” (Bioorg Med Chem, 2011).

Experiments:
Cathepsin L2 [1] = molecular target: T1, Cathepsin L2 (Homo sapiens, UniProt O60911); assay: Inhibition of human recombinant cathepsin V expressed in Pichia pastoris
T1 sequence (O60911 whole entry): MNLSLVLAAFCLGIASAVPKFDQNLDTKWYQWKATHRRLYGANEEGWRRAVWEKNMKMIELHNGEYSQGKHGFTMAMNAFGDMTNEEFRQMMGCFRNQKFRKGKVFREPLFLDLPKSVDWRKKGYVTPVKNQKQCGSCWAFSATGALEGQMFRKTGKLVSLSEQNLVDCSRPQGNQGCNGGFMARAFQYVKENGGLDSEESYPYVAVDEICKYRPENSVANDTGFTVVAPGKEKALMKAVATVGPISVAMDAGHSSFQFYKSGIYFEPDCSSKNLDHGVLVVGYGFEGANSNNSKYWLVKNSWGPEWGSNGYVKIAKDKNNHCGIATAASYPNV

Cathepsin L2 [2] = molecular target: T1, Cathepsin L2; assay: Inhibition of human recombinant cathepsin V expressed in Pichia pastoris by Lineweaver-Burk double-reciprocal plots

Row | Structure (SMILES) | IC50 (Cathepsin L2 [1]) [nM] | Ki (Cathepsin L2 [2]) [nM]
1 | COc1c2c(c(O)c3c(=O)c4cccc(O)c4n(C)c13)C=CC(C)(C)O2 [PYRANOFOLINE] | 44000 | –
2 | CC(C)=CCc1c(O)cc2c(c1O)c(=O)c1c(CC=C(C)C)ccc(O)c1n2C | 3900 | 1200
3 | COc1c(O)c(CC=C(C)C)c(O)c2c(=O)c3c(CC=C(C)C)ccc(O)c3n(C)c12 | 2500 | 500
4 | Cn1c2c(O)cccc2c(=O)c2c(O)cc3c(c21)C=CC(C)(C)O3 | 48000 | –
5 | CC(C)=CCc1c(O)cc(O)c2c(=O)c3cccc(O)c3n(C)c12 [GLYCOCITRINE-I] | 25000 | 10000
6 | COc1c(OC)c(OC)c2c(c1O)c(=O)c1cccc(O)c1n2C [CITIBRASINE] | 1200 | 200
7 | COc1c(O)c(CC=C(C)C)c(O)c2c(=O)c3cccc(O)c3n(C)c12 [GLYCOCITRINE-IV] | 2200 | 1100
8 | COc1c2c(c(O)c3c(=O)c4cccc(O)c4n(C)c13)CC(C(C)(C)O)O2 (stereo not given) | 5200 | 4400
9 | COc1cc(O)c2c(=O)c3cccc(O)c3n(C)c2c1OC [CITRUSININE-I] | 2200 | 1000
10 | COc1c(O)cc(O)c2c(=O)c3cccc(O)c3n(C)c12 [CITRUSININE-II] | 10000 | 4200
11 | COc1c(O)c2c(c3c(=O)c4cccc(O)c4n(C)c13)OC(C)(C)C(O)C2 (stereo not given) | 2800 | 1700
